Test results: article PMC10381533, “Inhibitory Effects of the Fungal Pigment Rubiginosin C on Hyphal and Biofilm Formation in Candida albicans and Candida auris” (Journal of Fungi, 2023)

Legend:
[1] = system: C. auris [DSM 21092] biofilm; test: Effects on C. auris biofilms of various ages (2 h, 12 h, 24 h), crystal violet; type: cell-based, Candida auris
Protocol: The turbidity of C. auris [DSM 21092] dispersion was measured at 280 nm and diluted to the turbidity of a 0.5 McFarland standard. C. auris was cultured in RPMI 1640 medium supplemented with […] MOPS (37 °C, 150 rpm, 2 h, 12 h, 24 h) in 96-well non-tissue microtiter plates (Falcon no. 351172, Thermo Fisher Scientific). After incubation, C. auris biofilms of various ages (2 h, 12 h, 24 h) were washed once by PBS buffer and treated (37 °C, 150 rpm, 24 h) with serial diluted Rub C (250–0.02 μg/mL) in fresh RPMI 1640 medium supplemented with […] MOPS. Samples of each time point were further processed and evaluated by a microtiter plate reader, as described above.

[2] = system: preformed S. aureus biofilm; test: Dispersal effect on preformed S. aureus biofilm; type: cell-based, Staphylococcus aureus; conditions: 250 µg/mL
Protocol: compounds (250–2 μg/mL) in CASO with 4% glucose broth. The inhibition of biofilm formation was evaluated by staining with 150 μL of 0.1% crystal violet (CV; Thermo Fisher) following previously established protocols. In the next step, the supernatant of the 96-well plate was discarded and the wells were rinsed once with PBS buffer. The remaining biofilms were stained at room temperature for 15 min, rinsed three times with PBS buffer, and finally dissolved in 150 μL ethanol (95%). The absorbance of the resulting solution at 530 nm was quantified using a plate reader (Synergy 2, BioTek). Methanol (2.5%) and microporenic acid A (MAA) (250–2 μg/mL) were used as negative and positive controls. Standard deviations (SD) of two repeats with duplicates were 10% or less. […]
Table S2: Selected azaphilones were tested against the formation of biofilm of S. aureus, P. aeruginosa as well as C. auris and dispersal effect on preformed biofilm of S. aureus compared to solvent control (= 0%), respectively. SDs are shown as ±SD.
Compounds Strains Concentrations [µg/mL] […]

Compound | biofilm attachment compared to solvent control (=0%) ([1]; 2 h old C. auris biofilm, 2 µg/mL) [%] | biofilm attachment compared to solvent control (=0%) ([1]; 2 h old C. auris biofilm, 3.9 µg/mL) [%] | biofilm attachment compared to solvent control (=0%) ([1]; 2 h old C. auris biofilm, 7.8 µg/mL) [%] | biofilm attachment compared to solvent control (=0%) ([1]; 2 h old C. auris biofilm, 15.6 µg/mL) [%] | biofilm attachment compared to solvent control (=0%) ([1]; 2 h old C. auris biofilm, 31.3 µg/mL) [%] | biofilm attachment compared to solvent control (=0%) ([1]; 2 h old C. auris biofilm, 62.5 µg/mL) [%] | biofilm attachment compared to solvent control (=0%) ([1]; 12 h old C. auris biofilm, 2 µg/mL) [%] | biofilm attachment compared to solvent control (=0%) ([1]; 12 h old C. auris biofilm, 3.9 µg/mL) [%] | biofilm attachment compared to solvent control (=0%) ([1]; 12 h old C. auris biofilm, 7.8 µg/mL) [%] | biofilm attachment compared to solvent control (=0%) ([1]; 12 h old C. auris biofilm, 15.6 µg/mL) [%] | biofilm attachment compared to solvent control (=0%) ([1]; 12 h old C. auris biofilm, 31.3 µg/mL) [%] | biofilm attachment compared to solvent control (=0%) ([1]; 12 h old C. auris biofilm, 62.5 µg/mL) [%] | biofilm attachment compared to solvent control (=0%) ([1]; 24 h old C. auris biofilm, 2 µg/mL) [%] | biofilm attachment compared to solvent control (=0%) ([1]; 24 h old C. auris biofilm, 3.9 µg/mL) [%] | biofilm attachment compared to solvent control (=0%) ([1]; 24 h old C. auris biofilm, 7.8 µg/mL) [%] | biofilm attachment compared to solvent control (=0%) ([1]; 24 h old C. auris biofilm, 15.6 µg/mL) [%] | biofilm attachment compared to solvent control (=0%) ([1]; 24 h old C. auris biofilm, 31.3 µg/mL) [%] | biofilm attachment compared to solvent control (=0%) ([1]; 24 h old C. auris biofilm, 62.5 µg/mL) [%] | dispersal effect on preformed biofilm of S. aureus compared to solvent control (= 0%) [2] [%]
C[C@@H]1[C@H](O)[C@@H](C)/C=C/C=C/CC/C=C/C=C/C=C/C=C/C(O[C@H]2O[C@H](C)[C@@H](O)[C@H](N)[C@@H]2O)CC2O[C@](O)(CC(O)C(O)CCC(O)CC(O)CC(O)CC(=O)O[C@H]1C)CC(O)C2C(=O)O (stereo partly shown) [Nystatin, nystatin] | 84 ±25 | 39 ±10 | 58 ±16 | 53 ±10 | 50 ±10 | 47 ±8 | 96 ±12 | 64 ±12 | 49 ±10 | 43 ±6 | 41 ±9 | 45 ±8 | 93 ±28 | 48 ±2 | 51 ±9 | 49 ±5 | 50 ±10 | 46 ±5 | 
CC(=O)OC/C=C/C1=CC2=C(CO1)C(=O)[C@@](C)(OC(=O)c1c(C)cc(O)cc1O)C(=O)/C2=C\C=C\C1=CC2=C(CO1)C(=O)[C@@](C)(OC(=O)c1c(C)cc(O)cc1O)[C@@H](O)C2 [Rut B, rutilin B] |  |  |  |  |  |  |  |  |  |  |  |  |  |  |  |  |  |  | 51 ±8
